This note sets out measurements from US7585859B2, “PDE4B inhibitors and uses therefor” (Plexxikon, Inc., priority 2004, dated 2009).

Read-outs that look alike come from different tables or passages of the source. Where only a bound is given, the exact number is not on record here.

One experiment has as its target T1, PDE4D (Homo sapiens, UniProt Q08499).
T1 construct: PDE4D: The catalytic domain of human PDE4B from S3 16-V692; His6 (N); thrombin cleavage site (N); made in house; host or cells: E. coli
The experiment in a line: PDE4 IC50 determination by Scintillation Proximity Assay, PDE4D. The experiment is classed as biochemical. The procedure, abridged: (§1)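 Hydrolysis of [^3H]cAMP measured by SPA with yttrium silicate beads, which bind the [^3H]AMP product strongly and cAMP weakly. Enzyme at 80 ng/ml for PDE4B, 4 ng/ml for PDE4D; 30 min at 30°.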
For orientation: In a scintillation proximity assay essentially only radioactivity close to the scintillant gives light.

Experiment [1] concerns the target T2, PDE4B: The catalytic domain of human PDE4B from S152-S528 (Homo sapiens, UniProt Q07343).
T2 construct: His6 (N); thrombin cleavage site (N); made in house; host or cells: E. coli
The experiment in a line: PDE4 IC50 determination by Scintillation Proximity Assay, PDE4B. The experiment is classed as biochemical. The procedure, abridged:
as §1

Setting [2] is: second part of Table 2B (2-23 to 2-103), column 5, column is PDE4D in first part, read-out: IC 50 vs. indicated assay h TNFα.
The mark [3] stands for this setting: second part of Table 2B (2-23 to 2-103), column 3, column is PDE4B in first part, read-out: IC 50 vs. indicated assay h TNFα.
[4] abbreviates: Table 3A, Formula III compounds, read-out: IC50 PDE4D.
[5] abbreviates: Table 3A, Formula III compounds, read-out: IC50 PDE4B.

T2 sequence (Q07343 with tags, fused parts or gaps): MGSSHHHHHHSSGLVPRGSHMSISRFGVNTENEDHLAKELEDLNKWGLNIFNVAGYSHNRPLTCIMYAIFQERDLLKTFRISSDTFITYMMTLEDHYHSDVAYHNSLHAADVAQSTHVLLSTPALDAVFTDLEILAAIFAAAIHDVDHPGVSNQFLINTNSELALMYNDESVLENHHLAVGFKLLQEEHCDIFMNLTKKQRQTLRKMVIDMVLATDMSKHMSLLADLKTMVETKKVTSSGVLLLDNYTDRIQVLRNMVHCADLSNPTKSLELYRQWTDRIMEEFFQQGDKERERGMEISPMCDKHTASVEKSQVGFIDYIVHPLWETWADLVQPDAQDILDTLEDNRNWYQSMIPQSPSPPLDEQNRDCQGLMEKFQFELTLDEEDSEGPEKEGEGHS
T1 sequence (Q08499 380-756): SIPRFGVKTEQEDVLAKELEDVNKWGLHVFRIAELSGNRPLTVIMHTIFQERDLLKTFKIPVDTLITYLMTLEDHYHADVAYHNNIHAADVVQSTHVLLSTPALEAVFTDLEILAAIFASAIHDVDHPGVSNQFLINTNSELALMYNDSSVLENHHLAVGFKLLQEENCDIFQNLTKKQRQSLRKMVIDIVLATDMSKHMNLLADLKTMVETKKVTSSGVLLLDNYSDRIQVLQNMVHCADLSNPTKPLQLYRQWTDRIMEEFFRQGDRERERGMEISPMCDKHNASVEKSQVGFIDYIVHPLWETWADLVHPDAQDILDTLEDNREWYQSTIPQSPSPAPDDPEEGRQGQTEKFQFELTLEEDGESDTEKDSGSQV

Regarding `COc1ccc(Nc2nc(N)c(C(=O)C3CCCC3)s2)cc1` [Compound 2-99, [4-Amino-2-(4-methoxy-phenylamino)-thiazol-5-yl]-cyclopentyl-methanone], the IC50 (on PDE4D (setting [2]); in experiment [1] (setting [3])) was more than 10 µM throughout.
As for `N#Cc1cccc(Nc2nc(N)c(C(=O)C3CCCC3)s2)c1` [Compound 2-100, 3-(4-Amino-5-cyclopentanecarbonyl-thiazol-2-ylamino)-benzonitrile], the IC50 (at PDE4D (setting [2]); in experiment [1] (setting [3])) was less than 10 µM throughout.
Turning to `Nc1nc(Nc2ccc(Oc3ccccc3)cc2)sc1C(=O)C1CCCC1` [Compound 2-101, [4-Amino-2-(4-phenoxy-phenylamino)-thiazol-5-yl]-cyclopentyl-methanone], the IC50 (on PDE4D (setting [2]); in experiment [1] (setting [3])) was more than 10 µM in each case.
As to `Nc1nc(NC2CCCC2)sc1C(=O)c1ccsc1` [Compound 2-102, (4-Amino-2-cyclopentylamino-thiazol-5-yl)-thiophen-3-yl-methanone], the IC50 (at PDE4D (setting [2]); in experiment [1] (setting [3])) was less than 10 µM each time.
As for `Nc1nc(NC2CCCC2)sc1C(=O)c1nc2ccccc2s1` [Compound 2-103, (4-Amino-2-cyclopentylamino-thiazol-5-yl)-benzothiazol-2-yl-methanone], the IC50 (at PDE4D (setting [2]); in experiment [1] (setting [3])) was less than 10 µM throughout.
`O=S(=O)(Nc1cccc2cccnc12)c1cccs1` [Compound 3-1, Thiophene-2-sulfonic acid guinolin-8-ylamide]: the IC50 (at PDE4D (setting [4]); in experiment [1] (setting [5])) was more than 10 µM each time.
As for `COc1cc(NS(=O)(=O)c2ccc(Br)s2)c2ncccc2c1` [Compound 3-2, 5-Bromo-thiophene-2-sulfonic acid (6-methoxy-quinolin-8-yl)-amide], the IC50 (at PDE4D (setting [4]); in experiment [1] (setting [5])) was more than 10 µM in each case.
As to `Cc1ccc2cccnc2c1NS(=O)(=O)c1ccc(Cl)s1` [Compound 3-3, 5-Chloro-thiophene-2-sulfonic acid (7-methyl-quinolin-8-yl)-amide], the IC50 (at PDE4D (setting [4]); in experiment [1] (setting [5])) was more than 10 µM each time.
As to `O=S(=O)(Nc1cccc2cccnc12)c1ccc(Br)s1` [Compound 3-4, 5-Bromo-thiophene-2-sulfonic acid quinolin-8-ylamide], the IC50 (at PDE4D (setting [4]); in experiment [1] (setting [5])) was more than 10 µM throughout.
Take `Cc1ccc2cccnc2c1NS(=O)(=O)c1cccs1` [Compound 3-5, Thiophene-2-sulfonic acid (7-methyl-quinolin-8-yl)-amide]: the IC50 (at PDE4D (setting [4]); in experiment [1] (setting [5])) was more than 10 µM in each case.
With `Cc1ccc2cccnc2c1NS(=O)(=O)c1ccc(Br)s1` [Compound 3-6, 5-Bromo-thiophene-2-sulfonic acid (7-methyl-quinolin-8-yl)-amide], the IC50 (on PDE4D (setting [4]); in experiment [1] (setting [5])) was more than 10 µM each time.
For `O=S(=O)(Nc1cccc2cccnc12)c1ccc(Cl)s1` [Compound 3-7, 5-Chloro-thiophene-2-sulfonic acid quinolin-8-ylamide], the IC50 (at PDE4D (setting [4]); in experiment [1] (setting [5])) was more than 10 µM throughout.
In the case of `Cc1ccc2cccnc2c1NS(=O)(=O)c1cc(Cl)c(Cl)s1` [Compound 3-8, 4,5-Dichloro-thiophene-2-sulfonic acid (7-methyl-quinolin-8-yl)-amide], the IC50 (at PDE4D (setting [4]); in experiment [1] (setting [5])) was more than 10 µM in each case.
As to `COc1cc(NS(=O)(=O)c2cc(Cl)c(Cl)s2)c2ncccc2c1` [Compound 3-9, 4,5-Dichloro-thiophene-2-sulfonic acid (6-methoxy-quinolin-8-yl)-amide], the IC50 (on PDE4D (setting [4]); in experiment [1] (setting [5])) was more than 10 µM in each case.
Consider `O=S(=O)(Nc1cccc2cccnc12)c1cc(Cl)c(Cl)s1` [Compound 3-10, 4,5-Dichloro-thiophene-2-sulfonic acid quinolin-8-ylamide], for which the IC50 (at PDE4D (setting [4]); in experiment [1] (setting [5])) was more than 10 µM throughout.
As for `Cc1ccc2cccnc2c1NS(=O)(=O)c1cc(Cl)sc1Cl` [Compound 3-11, 2,5-Dichloro-thiophene-3-sulfonic acid (7-methyl-quinolin-8-yl)-amide], the IC50 (at PDE4D (setting [4]); in experiment [1] (setting [5])) was more than 10 µM in each case.
With `COc1cc(NS(=O)(=O)c2ccc(Cl)s2)c2ncccc2c1` [Compound 3-12, 5-Chloro-thiophene-2-sulfonic acid (6-methoxy-quinolin-8-yl)-amide], the IC50 (on PDE4D (setting [4]); in experiment [1] (setting [5])) was more than 10 µM each time.
Consider `COc1cc(NS(=O)(=O)c2cccs2)c2ncccc2c1` [Compound 3-13, Thiophene-2-sulfonic acid (6-methoxy-quinolin-8-yl)-amide], for which the IC50 (on PDE4D (setting [4]); in experiment [1] (setting [5])) was more than 10 µM each time.
For the compound `COc1cc(NS(=O)(=O)c2ccc(-c3ccnc(SC)n3)s2)c2ncccc2c1` [Compound 3-14, 5-(2-Methylsulfanyl-pyrimidin-4-yl)-thiophene-2-sulfonic acid (6-methoxy-quinolin-8-yl)-amide], the IC50 (on PDE4D (setting [4]); in experiment [1] (setting [5])) was less than 10 µM in each case.
With `CSc1nccc(-c2ccc(S(=O)(=O)Nc3c(C)ccc4cccnc34)s2)n1` [Compound 3-15, 5-(2-Methylsulfanyl-pyrimidin-4-yl)-thiophene-2-sulfonic acid (7-methyl-quinolin-8-yl)-amide], the IC50 (at PDE4D (setting [4]); in experiment [1] (setting [5])) was more than 10 µM each time.
On to `CSc1nccc(-c2ccc(S(=O)(=O)Nc3cccc4cccnc34)s2)n1` [Compound 3-16, 5-(2-Methylsulfanyl-pyrimidin-4-yl)-thiophene-2-sulfonic acid quinolin-8-ylamide], for which the IC50 (at PDE4D (setting [4]); in experiment [1] (setting [5])) was less than 10 µM throughout.
On to `Cn1nc(-c2ccc(S(=O)(=O)Nc3cccc4cccnc34)s2)cc1C(F)(F)F` [Compound 3-20, 5-(1-Methyl-5-trifluoromethyl-1H-pyrazol-3-yl)-thiophene-2-sulfonic acid quinolin-8-ylamide], for which the IC50 (on PDE4D (setting [4]); in experiment [1] (setting [5])) was more than 10 µM throughout.
For `COc1cc(NS(=O)(=O)c2ccc(-c3cc(C(F)(F)F)n(C)n3)s2)c2ncccc2c1` [Compound 3-21, 5-(1-Methyl-5-trifluoromethyl-1H-pyrazol-3-yl)-thiophene-2-sulfonic acid (6-methoxy-quinolin-8-yl)-amide], the IC50 (on PDE4D (setting [4]); in experiment [1] (setting [5])) was more than 10 µM each time.
In the case of `Cc1ccc2cccnc2c1NS(=O)(=O)c1ccc(-c2cc(C(F)(F)F)n(C)n2)s1` [Compound 3-22, 5-(1-Methyl-5-trifluoromethyl-1H-pyrazol-3-yl)-thiophene-2-sulfonic acid (7-methyl-quinolin-8-yl)-amide], the IC50 (on PDE4D (setting [4]); in experiment [1] (setting [5])) was more than 10 µM in each case.
As to `O=S(=O)(Nc1cccc2cccnc12)c1ccc(-c2ccon2)s1` [Compound 3-23, 5-Isoxazol-3-yl-thiophene-2-sulfonic acid quinolin-8-ylamide], the IC50 (at PDE4D (setting [4]); in experiment [1] (setting [5])) was more than 10 µM each time.
For the compound `Cc1ccc2cccnc2c1NS(=O)(=O)c1ccc(-c2ccon2)s1` [Compound 3-24, 5-Isoxazol-3-yl-thiophene-2-sulfonic acid (7-methyl-quinolin-8-yl)-amide], the IC50 (on PDE4D (setting [4]); in experiment [1] (setting [5])) was more than 10 µM each time.
For `COc1cc(NS(=O)(=O)c2ccc(-c3ccon3)s2)c2ncccc2c1` [Compound 3-25, 5-Isoxazol-3-yl-thiophene-2-sulfonic acid (6-methoxy-quinolin-8-yl)-amide], the IC50 (on PDE4D (setting [4]); in experiment [1] (setting [5])) was more than 10 µM in each case.
For `Cc1ccc2cccnc2c1NS(=O)(=O)c1ccc(-c2cc(C(F)(F)F)on2)s1` [Compound 3-26, 5-(5-Trifluoromethyl-isoxazol-3-yl)-thiophene-2-sulfonic acid (7-methyl-quinolin-8-yl)-amide], the IC50 (on PDE4D (setting [4]); in experiment [1] (setting [5])) was more than 10 µM in each case.
Turning to `COc1cc(NS(=O)(=O)c2ccc(-c3cc(C(F)(F)F)on3)s2)c2ncccc2c1` [Compound 3-27, 5-(5-Trifluoromethyl-isoxazol-3-yl)-thiophene-2-sulfonic acid (6-methoxy-quinolin-8-yl)-amide], the IC50 (on PDE4D (setting [4]); in experiment [1] (setting [5])) was more than 10 µM throughout.
Consider `O=S(=O)(Nc1cccc2cccnc12)c1ccc(-c2cc(C(F)(F)F)on2)s1` [Compound 3-28, 5-(5-Trifluoromethyl-isoxazol-3-yl)-thiophene-2-sulfonic acid quinolin-8-ylamide], for which the IC50 (on PDE4D (setting [4]); in experiment [1] (setting [5])) was more than 10 µM in each case.
In the case of `Cc1ccc2cccnc2c1NS(=O)(=O)c1ccc(-c2ccccn2)s1` [Compound 3-29, 5-Pyridin-2-yl-thiophene-2-sulfonic acid (7-methyl-quinolin-8-yl)-amide], the IC50 (on PDE4D (setting [4]); in experiment [1] (setting [5])) was more than 10 µM each time.
With `O=S(=O)(Nc1cccc2cccnc12)c1ccc(-c2ccccn2)s1` [Compound 3-30, 5-Pyridin-2-yl-thiophene-2-sulfonic acid quinolin-8-ylamide], the IC50 (on PDE4D (setting [4]); in experiment [1] (setting [5])) was more than 10 µM each time.
On to `COc1cc(NS(=O)(=O)c2ccc(-c3ccccn3)s2)c2ncccc2c1` [Compound 3-31, 5-Pyridin-2-yl-thiophene-2-sulfonic acid (6-methoxy-quinolin-8-yl)-amide], for which the IC50 is more than 10 µM at PDE4D (setting [4]) and less than 10 µM in experiment [1] (setting [5]).
As for `O=C(NCc1ccc(S(=O)(=O)Nc2cccc3cccnc23)s1)c1ccccc1` [Compound 3-32, N-[5-(Quinolin-8-ylsulfamoyl)-thiophen-2-ylmethyl]-benzamide], the IC50 (on PDE4D (setting [4]); in experiment [1] (setting [5])) was more than 10 µM in each case.
